Laboratory results published in US12435061B2 (priority 2020, dated 2025).
Counter-ions that a name gives are not always drawn. Like-named read-outs stand apart in the source and are kept apart here.

Molecular target: hTRPV3 (Homo sapiens (Human), UniProt Q8NET8)
Experiment: Whole-cell patch clamp, hTRPV3 Phase 1 / Phase 2 currents
Type: cell-based
In short: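 Whole-cell recordings on induced TRPV3 cells replated on coverslips, held at −40 mV with 400 ms ramps from −120 to +100 mV every 5 s; currents read at −80 and +80 mV. Ringer's external solution; current activated by heating to ≥28 °C or 20 μM 2-APB.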

[1] = Phase 1 current, human TRPV3, read-out: hTRPV3 (nM) Phase 1
[2] = Phase 1 current, inward, whole-cell patch clamp, read-out: hTRPV3 Patch P1 Inwd
[3] = Phase 2 current, human TRPV3, read-out: hTRPV3 (nM) Phase 2
[4] = Phase 2 current, inward, whole-cell patch clamp, read-out: hTRPV3 Patch P2 Inwd

Chain of hTRPV3 (Q8NET8 whole entry): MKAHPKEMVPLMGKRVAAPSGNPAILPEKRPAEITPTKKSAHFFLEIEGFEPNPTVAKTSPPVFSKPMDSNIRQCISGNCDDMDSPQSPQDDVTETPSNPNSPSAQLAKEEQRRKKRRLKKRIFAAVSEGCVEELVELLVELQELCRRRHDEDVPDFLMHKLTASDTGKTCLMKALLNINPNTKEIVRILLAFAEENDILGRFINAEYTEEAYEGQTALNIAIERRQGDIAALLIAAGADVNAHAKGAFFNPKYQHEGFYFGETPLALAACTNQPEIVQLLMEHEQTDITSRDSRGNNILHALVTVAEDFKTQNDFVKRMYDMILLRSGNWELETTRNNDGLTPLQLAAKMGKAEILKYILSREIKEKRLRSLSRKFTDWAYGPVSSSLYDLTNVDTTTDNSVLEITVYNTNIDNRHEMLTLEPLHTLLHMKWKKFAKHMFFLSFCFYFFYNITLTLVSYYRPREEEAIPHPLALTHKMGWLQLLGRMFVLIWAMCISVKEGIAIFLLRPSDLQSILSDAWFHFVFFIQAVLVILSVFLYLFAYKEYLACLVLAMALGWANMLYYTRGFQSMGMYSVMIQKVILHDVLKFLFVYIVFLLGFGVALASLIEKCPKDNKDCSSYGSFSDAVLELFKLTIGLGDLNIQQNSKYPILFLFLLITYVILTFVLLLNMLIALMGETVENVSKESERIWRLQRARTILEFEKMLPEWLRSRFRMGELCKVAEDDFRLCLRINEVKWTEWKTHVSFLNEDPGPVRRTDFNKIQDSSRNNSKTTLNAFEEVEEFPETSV

| Compound | IC50 [1] | IC50 [2] | IC50 [3] | IC50 [4] |
| --- | --- | --- | --- | --- |
| COc1ccnc(C(=O)N2CCC(c3ccc(-c4ccccc4C4CC4)cc3CO)C2)c1 (stereo not drawn) [Compound 2-75, (3-(2′-cyclopropyl-3-(hydroxymethyl)biphenyl-4-yl)pyrrolidin-1-yl)(4-methoxypyridin-2-yl)methanone] | 215 nM | 100 to 1000 nM | – | – |
| COc1ccc(C(=O)N2CCC(c3ccc(-c4ccccc4C4CC4)cc3CO)C2)nc1 (stereo not drawn) [Compound 2-76, (3-(2′-cyclopropyl-3-(hydroxymethyl)biphenyl-4-yl)pyrrolidin-1-yl)(5-methoxypyridin-2-yl)methanone] | 71 nM | 10 to 100 nM | – | – |
| O=C(c1ccc(C(F)(F)F)cn1)N1CCC(c2ccc(-c3ccccc3)nc2CO)C1 (stereo not drawn) [Compound 2-81] | 268 nM | 100 to 1000 nM | 298 nM | 100 to 1000 nM |
| O=C(c1ccc(Cl)cn1)N1CCC(c2ccc(-c3ccccc3)nc2CO)C1 (stereo not drawn) [Compound 2-82] | 836 nM | 100 to 1000 nM | – | – |
| Cc1ccccc1Oc1ccc(C2CCN(C(=O)c3ncccc3Cl)C2)c(CO)c1 (stereo not drawn) [Compound 2-84, (3-chloropyridin-2-yl)(3-(2-(hydroxymethyl)-4-(o-tolyloxy)phenyl)pyrrolidin-1-yl)methanone] | 932 nM | – | – | – |
| O=C(c1ncccc1Cl)N1CCC(c2ccc(Oc3ccccc3)cc2CO)C1 (stereo not drawn) [Compound 2-85, (3-chloropyridin-2-yl)(3-(2-(hydroxymethyl)-4-phenoxyphenyl)pyrrolidin-1-yl)methanone] | 3310 nM | – | – | – |
| CC(C)c1ccccc1Oc1ccc(C2CC(=O)N(Cc3ncccc3Cl)C2)c(CO)c1 (stereo not drawn) [Compound 2-88, 1-((3-chloropyridin-2-yl)methyl)-4-(2-(hydroxymethyl)-4-(2-isopropylphenoxy)phenyl)pyrrolidin-2-one] | 169 nM | 100 to 1000 nM | 184 nM | 100 to 1000 nM |
| Cc1cccnc1CN1CCC(c2ccc(Oc3ccccc3C(C)C)cc2CO)C1 (stereo not drawn) [Compound 2-89, (5-(2-isopropylphenoxy)-2-(1-((3-methylpyridin-2-yl)methyl)pyrrolidin-3-yl)phenyl)methanol hydrochloride] | 1230 nM | > 1000 nM | – | – |
| Cc1ccc(CN2CCC(c3ccc(Oc4ccccc4C(C)C)cc3CO)C2)nc1 (stereo not drawn) [Compound 2-90, (5-(2-isopropylphenoxy)-2-(1-((5-methylpyridin-2-yl)methyl)pyrrolidin-3-yl)phenyl)methanol hydrochloride] | 812 nM | 100 to 1000 nM | – | – |
| CC(C)c1ccccc1Oc1ccc(C2CCN(Cc3ccc(Cl)cn3)C2)c(CO)c1 (stereo not drawn) [Compound 2-91, (2-(1-((5-chloropyridin-2-yl)methyl)pyrrolidin-3-yl)-5-(2-isopropylphenoxy)phenyl)methanol] | 325 nM | 100 to 1000 nM | – | – |
| CC(C)c1ccccc1Oc1ccc(C2CCN(Cc3ncccc3Cl)C2)c(CO)c1 (stereo not drawn) [Compound 2-92, (2-(1-((3-chloropyridin-2-yl)methyl)pyrrolidin-3-yl)-5-(2-isopropylphenoxy)phenyl)methanol hydrochloride] | 592 nM | 100 to 1000 nM | – | – |
| Cc1cccc(CN2CCC(c3ccc(Oc4ccccc4C(C)C)cc3CO)C2)n1 (stereo not drawn) [Compound 2-94, (5-(2-isopropylphenoxy)-2-(1-((6-methylpyridin-2-yl)methyl)pyrrolidin-3-yl)phenyl)methanol hydrochloride] | 339 nM | 100 to 1000 nM | – | – |
| CC(C)c1ccccc1Oc1ccc(C2CCN(Cc3cccc(Cl)n3)C2)c(CO)c1 (stereo not drawn) [Compound 2-96, (2-(1-((6-chloropyridin-2-yl)methyl)pyrrolidin-3-yl)-5-(2-isopropylphenoxy)phenyl)methanol hydrochloride] | 246 nM | 100 to 1000 nM | – | – |
| Cc1cccc(CN2CC(c3ccc(Oc4ccccc4C(C)C)cc3C(N)=O)CC2=O)n1 (stereo not drawn) [Compound 2-97, 5-(2-isopropylphenoxy)-2-(1-((6-methylpyridin-2-yl)methyl)-5-oxopyrrolidin-3-yl)benzamide] | > 3200 nM | > 1000 nM | – | – |
